Assay results as given in patent US20100240598A1, “PEPTIDES AND PEPTIDE MIMETICS TO INHIBIT THE ONSET AND/OR PROGRESSION OF FIBROTIC AND/OR PRE-FIBROTIC PATHOLOGIES” (THE REGENTS OF THE UNIVERSITY OF CALIFORNIA, priority 2009, published 2010).
“Also recorded” adds a separate entry of the source. Where two headings read alike, the source gives them in different places. One block for each compound: values may come before it.

Key:
[1] = test system: ApoE null mice; assay: HDL function after D-4F and/or statin in drinking water for 24 hours; assay type: in vivo
[2] = test system: mice fed an atherogenic diet; settings: 20 μg daily; cited from earlier work
[3] = mouse, in vivo, po
[4] = test system: ApoE null mice; assay: HDL and pre-beta HDL inhibition of LDL-induced monocyte chemotaxis after feeding solution-phase synthesized D-4F; assay type: in vivo; settings: 5 micrograms fed, bled twelve hours after feeding was started
Source text: ApoE null mice were fed 5 micrograms of the D-4F synthesized as described above (Frgmnt) or the mice were given the same amount of mouse chow without D-4F (Chow). Twelve hours after the feeding was started, the mice were bled and their plasma was fractionated on FPLC.

[5] = test system: LDL receptor null mice; assay: HDL protective capacity in LDL receptor null mice given peptide in drinking water; assay type: in vivo; settings: 0.25 or 0.5 mg per ml drinking water, 24 or 48 hrs; mouse HDL at 100 μg/ml
Description: D-4F designated as F, or the apoJ peptide made from D amino acids (D-J336, designated as J) was added to the drinking water of LDL receptor null mice (4 per group) at 0.25 or 0.5 mg per ml of drinking water. After 24- or 48-hrs blood was collected from the mice and their HDL was isolated and tested for its ability to protect against LDL-induced monocyte chemotactic activity. Assay controls included culture wells that received no lipoproteins (no addition), or control human LDL alone (designated as LDL, 200 μg cholesterol/ml), or control LDL+control human HDL (designated as +HDL, 350 μg HDL cholesterol). For testing the mouse HDL, the control LDL was added together with mouse HDL (+F HDL or +J HDL) to artery wall cell cultures. The mouse HDL was added at 100 μg cholesterol/ml respectively.

[6] = test system: ApoE null mice; assay: HDL Inflammatory Index after D-4F or Reverse D-4F by stomach tube; assay type: in vivo; settings: 0, 3, 6, 12 or 25 micrograms by stomach tube, blood 7 hours later
Description: Female apoE null mice were administered by stomach tube 0, 3, 6, 12, or 25 micrograms of D-4F or Reverse D-4F in 100 microliters of water. Blood was obtained 7 hours later and the plasma was fractionated by FPLC. A standard control human LDL was added to human artery wall cells at a concentration of 100 micrograms of LDL-cholesterol/mL (LDL). The resulting monocyte chemotactic activity was normalized to 1.0. The same LDL at the same concentration was added to the human artery wall cells together with HDL at 50 micrograms HDL-cholesterol/mL from a normal human (hHDL) or from the apoE null mice that received the dose of D-4F or Reverse D-4F shown on the X-axis. The resulting monocyte chemotactic activity was normalized to that of the LDL added without HDL. The resulting value is the HDL Inflammatory Index. The results shown are the Mean±S.D. for the data from three separate experiments.

[7] = test system: Obese Zucker rats; assay: Plasma glucose and lipid hydroperoxides in obese Zucker rats given D-4F; assay type: in vivo; settings: 5.0 mg/kg/day intraperitoneal, 10 days, rats 26 weeks of age
Description: Obese Zucker rats 26 weeks of age were bled and then treated with daily intraperitoneal injections of D-4F (5.0 mg/kg/day). After 10 days the rats were bled again plasma glucose and lipid hydroperoxides (LOOH) were determined. *p=0.027; ** p=0.0017.

[8] = test system: ApoE null mice; assay: Trabecular bone mineral density after D-4F in drinking water; assay type: in vivo; settings: drinking water for 6 weeks
[9] = test system: ApoE null mice; assay: Protection against LDL-induced monocyte chemotactic activity by HDL from apo E null mice given oral peptides; assay type: in vivo; settings: for activity of murine HDL against LDL-induced monocyte chemotactic activity: drinking water, 24 hrs, murine HDL at 100 μg/ml
Description: After 24 hrs blood was collected, plasma fractionated by FPLC and fractions containing LDL (designated as mLDL for murine LDL) and fractions containing HDL (designated as mHDL) were separately pooled and HDL protective capacity against LDL oxidation as determined by LDL-induced monocyte chemotactic activity was determined. For the assay controls the culture wells received no lipoproteins (no additions), mLDL alone (at 200 μg cholesterol/ml), or mLDL+standard normal human HDL (designated as Cont. h HDL, at 350 μg HDL cholesterol/ml).
For testing the murine HDL, mLDL together with murine HDL (+F mHDL or +J mHDL) were added to artery wall cell cultures. […] The murine HDL was used at 100 μg cholesterol/ml.

[10] = Association with pre-beta HDL/HDL and clearance from the circulation after an oral dose
[11] = test system: ApoE null mice; assay: HDL protective capacity against PAPC oxidation by HPODE, HDL from apo E null mice given oral peptides; assay type: in vivo; settings: added to the drinking water, 24 hrs; murine HDL 100 μg cholesterol/ml
Description: After 24 hrs blood was collected, plasma fractionated by FPLC and fractions containing HDL (designated as mHDL) were pooled and HDL protective capacity against PAPC oxidation as determined by the induction of monocyte chemotactic activity was determined. For the assay controls the culture wells received no lipoproteins (no additions), the phospholipid PAPC at 20 μg/ml+HPODE, at 1.0 μg/ml, or PAPC+HPODE plus standard normal human HDL (at 350 μg HDL cholesterol/ml and designated as +Cont. h HDL).
For testing the murine HDL, PAPC+HPODE together with murine HDL (+F mHDL or +J mHDL) were added to artery wall cell cultures. […] The murine HDL was used at 100 μg cholesterol/ml.

[12] = test system: Human aortic endothelial cells; assay: Prevention of LDL-induced monocyte chemotactic activity in vitro, co-incubation; assay type: cell-based; settings: co-incubation with control human LDL 200 μg protein/ml, overnight
Description: FIG. 1 illustrates a comparison of the effect of […] et al. (2002) Circulation, 105: 290-292) with the effect of an apoJ peptide made from D amino acids (D-J336, […], SEQ ID NO:999)) on the prevention of LDL-induced monocyte chemotactic activity in vitro in a co-incubation. […] D-J336 or D-4F was added to other wells in a concentration range as indicated plus control human LDL (200 μg protein/ml). Following overnight incubation, the supernatants were assayed for monocyte chemotactic activity.

[13] = test system: PON1; settings: added to the drinking water, 24 hrs
[14] = test system: Human aortic endothelial cells; assay: Prevention of LDL-induced monocyte chemotactic activity by pre-treatment (pre-incubation) of artery wall cells; assay type: cell-based; settings: 6 hrs pre-incubation, then control human LDL 200 μg protein/ml
Description: FIG. 2 illustrates a comparison of the effect of D-4F with the effect of D-J336 on the prevention of LDL induced monocyte chemotactic activity in a pre-incubation. Human aortic endothelial cells were pre-incubated with D-J336 or D-4F at 4, 2, and 1 μg/ml for DJ336 or 100, 50, 25, and 12.5 μg/ml for D-4F for 6 hrs. The cultures were then washed and were incubated with medium alone (no addition), or with control human LDL (200 μg protein/ml), or with control human LDL+control human HDL (350 μg HDL protein/ml) as assay controls. The wells that were pre-treated with peptides received the control human LDL at 200 μg protein/ml. Following overnight incubation, the supernatants were assayed for monocyte chemotactic activity.

[15] = test system: ApoE null mice; assay: Ability of LDL from apoE null mice given oral peptides to induce monocyte chemotactic activity (LDL susceptibility to oxidation); assay type: in vivo; settings: added to the drinking water, 24 hrs
Description: FIG. 5 illustrates the effect of oral apo A-1 peptide mimetic and apoJ peptide on LDL susceptibility to oxidation. […] After 24 hrs blood was collected from the mice shown in FIG. 4, plasma fractionated by FPLC and fractions containing LDL (designated as mLDL for murine LDL) were pooled and LDL susceptibility to oxidation as determined by induction of monocyte chemotactic activity was determined. For the assay controls the culture wells received no lipoproteins (no additions), mLDL alone (at 200 μg cholesterol/ml), or mLDL+standard normal human HDL (designated as Cont. h HDL, 350 μg HDL cholesterol).
Murine LDL, mLDL, from mice that received the D-4F (F mLDL) or those that received the apoJ peptide (J mLDL) were added to artery wall cell cultures.

[16] = test system: human LDL; assay: Treating human LDL in vitro, removal of seeding molecules; assay type: biochemical
Source text: (§1) We discovered that normal HDL inhibits three steps in the formation of mildly oxidized LDL. […] These seeding molecules were required for cocultures of human artery wall cells to be able to oxidize LDL and for the LDL to induce the artery wall cells to produce monocyte chemotactic activity.

[17] = test system: human volunteers; assay: LDL oxidation resistance after infusion of apo A-I into humans; assay type: in vivo
Source text: as §1

[18] = test system: mice; assay: LDL oxidation resistance after injection of apo A-I into mice; assay type: in vivo
Source text: as §1

Compound: CC(C)c1c(C(=O)Nc2ccccc2)c(-c2ccccc2)c(-c2ccc(F)cc2)n1CC[C@@H](O)C[C@@H](O)CC(=O)O [atorvastatin, reference compound]
- HDL function, statin alone ([1]; 0.05 mg/ml in drinking water for 24 hours): did not improve HDL function

Compound: Ac-D-W-L-K-A-F-Y-D-K-V-F-E-K-F-K-E-F-F-NH2 (Ac-DWLKAFYDKVFEKFKEFF-NH2) [Peptide 5F]
- LDL oxidation and induction of monocyte chemotactic activity, PBS-injected versus peptide-injected mice [2]: more readily oxidized and more readily induced monocyte chemotactic activity

- detectability in the circulation [3]: essentially non-detectable
Compound: Ac-DWFKAFYDKVAEKFKEAF-NH2 [Peptide D-4F]
- association with pre-beta HDL and HDL [3]: rapidly associates with pre-beta HDL and HDL
- biological activity in producing HDL and pre-beta HDL that inhibit LDL-induced monocyte chemotaxis [4]: very biologically active
- activity of mouse HDL in preventing control LDL from inducing monocyte chemotactic activity [5]: as active as 350 μg/ml of control human HDL
- biological activity (HDL Inflammatory Index), D-4F versus Reverse D-4F [6]: not significantly different
- HDL function, D-4F alone ([1]; 1 μg/ml in drinking water for 24 hours): did not significantly improve HDL function; also recorded: no effect on HDL function
- HDL function, D-4F together with statin ([1]; D-4F 1 μg/ml together with 0.05 mg/ml of atorvastatin or pravastatin in drinking water): significant improvement in HDL function
- anti-inflammatory activity of apoE null HDL compared with normal human HDL, D-4F together with statin ([1]; mouse HDL at 50 μg/ml of HDL-cholesterol, HPODE oxidizing PAPC in cocultures of human artery wall cells): as anti-inflammatory as 350 μg/ml of normal human HDL; also recorded: as effective as normal human HDL at 350 μg/ml of HDL-cholesterol
- symptoms of diabetes (blood glucose, lipid hydroperoxides) [7]: effective in mitigating symptoms of diabetes
- trabecular bone mineral density [8]: dramatically increased
- activity of murine HDL against LDL-induced monocyte chemotactic activity [9]: as active as 350 μg/ml of normal human HDL

Compound: Ac-FAEKFKEAVKDYFAKFWD-NH2 [Reverse D-4F]
- biological activity (HDL Inflammatory Index), D-4F versus Reverse D-4F [6]: not significantly different

- time remaining associated with HDL fractions ([10]; mouse, in vivo): at least 36 hours
Compound: Ac-L V G R Q L E E F L-NH2 [D-[113-122]apoJ]
- association with pre-beta HDL and HDL ([10]; after an oral dose): slowly associates with pre-beta HDL and to a lesser extent with HDL

Compound: Ac-LLEQLNEQFNWVSRLANLTQGE-NH2 [D-J336]
- potency in causing HDL to inhibit oxidation of PAPC by HPODE compared with D-4F [11]: as potent as D-4F
- activity of mouse HDL in preventing control LDL from inducing monocyte chemotactic activity [5]: as active as 350 μg/ml of control human HDL
- in vitro concentration that prevents LDL-induced monocyte chemotactic activity, relative to the concentration required for D-4F [12]: 10 to 25 times less
- potency in increasing paraoxonase activity compared with D-4F [13]: at least as potent as D-4F
- potency in enhancing HDL protective capacity compared with D-4F ([9]; added to the drinking water, apo E null mice): as potent as D-4F
- activity of murine HDL against LDL-induced monocyte chemotactic activity [9]: as active as 350 μg/ml of normal human HDL
- potency in preventing LDL oxidation by artery wall cells in vitro relative to D-4F [14]: 10-25 times more potent
- potency in rendering LDL resistant to oxidation by human artery wall cells compared with D-4F [15]: slightly more potent than D-4F

Compound: apo A-I: the major protein of HDL, apolipoprotein A-I
- effect on seeding molecules (HPODE, HPETE) of human LDL [16]: removed seeding molecules from the LDL
- oxidation of LDL isolated after infusion, by human artery wall cells [17]: resistant to oxidation by human artery wall cells
- oxidation of LDL isolated after injection, by human artery wall cells [18]: resistant to oxidation by human artery wall cells
